# Test results as given in patent US9907856B2, “Carboxymethylcellulose-peptide conjugates and methods for using the same” (The Regents of the University of California, priority 2013, dated 2018).
# Ends that are not written are not given here.
# What was measured:
# [1] = tested on: Chronic Myocardial Infarction Model; test: Echocardiography in chronic myocardial infarction model after polymer injection; type: in vivo, Sprague-Dawley rats; conditions: rat; for Diastolic volume / MI wall thickness / Systolic volume: 5 weeks post-treatment vs baseline; for Fractional area change (FAC), 5 weeks post-treatment / LV ejection fraction, 5 weeks post-treatment: 100 μL injected into infarcted LV, 5 weeks post-treatment (10 weeks post-MI); for Fractional area change (FAC), 5 weeks post-treatment / LV ejection fraction, 5 weeks post-treatment / Fractional area change (FAC), baseline / LV ejection fraction, baseline: mean ± SD; for Fractional area change (FAC), baseline / LV ejection fraction, baseline: baseline 5 weeks post-MI, before treatment
# Description: (§1) All surgical procedures were approved by the Committee for Animal Research of the University of California San Francisco (San Francisco, Calif.). Female Sprague-Dawley rats (225-250 g) were anesthetized with isoflurane. The chest was opened by a median sternotomy, and a single stitch of 7-0 Ticron suture (United States Surgical division of Tyco Healthcare, Norwalk, Conn.) was introduced around the left anterior descending (LAD) coronary artery and tightened to occlude for 30 min. before re-perfusing the vessel (Yu et al, J Thorac Cardiovasc Surg. 2009 Jan. 1, 2009; 137(1):180-7; Christman et a, J Am Coll Cardiol. 2004; 44(3):654-60; Christman et al, Tissue Eng. 2004; 10(3-4):403-9; Huang et al, Tissue Eng. 2005; 11(11-12):1860-6; Sievers et al, Magn Reson Med. 1989; 10:172-81; and Yu et al, Biomaterials. 2009; 30(5):751-6; which are hereby incorporated by reference in their entirety). Cardiac monitoring during the LAD occlusion confirmed the presence of myocardial injury as indicated by ST-elevation. The chest was then closed and the animal was allowed to recover for 5 weeks in order to allow for a LV aneurysm to fully develop. Transthoracic echocardiography was performed 5 weeks post-MI and 5 weeks post-treatment as previously described (Yu et al, J Thorac Cardiovasc Surg. 2009 Jan. 1, 2009; 137(1):180-7; and Litwin et al, Circulation. 1994; 89:345-54; which are hereby incorporated by reference in their entirety).
# (§2) Five weeks post-MI and prior to treatment, we verified the LV aneurysmal formation and compromised LV function via echocardiography. The rats were randomized into MC:CMC, MC:CMC-RGD, MC:CMC-HepIII, or phosphate-buffered saline (PBS) control groups (N=8-9 rats/group). Using a closed chest echocardiography-guided injection technique (Springer et al, American Journal of Physiology—Heart and Circulatory Physiology. Sep. 1, 2005; 289(3):H1307-H14; which is hereby incorporated by reference in its entirety), 100 μL of polymer or PBS solution was injected into the infracted LV region of each heart, using a 1 mL syringe system and a 25-gauge needle.
# [2] = Rheology studies of 5:1 MC:CMC polymer blends; type: physicochemical; conditions: for Gelling temperature: 5:1 MC:CMC polymer blends, intersection of elastic and viscous modulus plots, mean ± SEM; for Effect of peptide conjugation on viscoelastic properties of the polymer: 5:1 blend, 20-40° C., vs unconjugated polymer
# Description: Rheology measurements (Advanced Rheometer AR2000, TA Instruments, New Castle, Del.) were done on MC:CMC, MC:CMC-RGD, and MC:CMC-HepIII co-polymers mixed at a 5:1 ratio. The elastic modulus and viscous modulus were determined for temperatures ranging from 20-40° C., with 1° C. increments. The equilibration time was set at 1 min. and the frequency was set at 1 Hz. The gelling temperature was defined as the point of intersection between the plot for the elastic modulus and the plot for the viscous modulus. Measurements were done in triplicate.
# [3] = tested on: Chronic Myocardial Infarction Model; test: Histology/immunohistochemistry of infarct region (infarct size, angiogenesis, cardiac cells); type: in vivo, Sprague-Dawley rats; conditions: rat, 5 weeks post-treatment; for Density of cardiomyocytes within the infarct region / Infarct size: compared to PBS negative control; for Capillary density in the infarct region: CD31 staining; for Capillary density in the infarct region / Arteriole density within the infarct region: mean ± SD; for Infarct size: Masson's trichrome; for Arteriole density within the infarct region: α-smooth muscle actin staining
# Description: as §1, §2
# Five weeks post-treatment (10 weeks post-MI), the rats were euthanized and their hearts were harvested, rinsed in cold saline, blotted-dry and fresh frozen in Tissue Tek O.C.T. freezing medium (Sakura Finetek, Torrance, Calif.). The hearts were sectioned into 10 μm slices. Sequential slides spanning the LV region were stained with Masson's trichrome stain and were used for morphological assessment of the infarct size as previously described (Christman et al, J Am Coll Cardiol. 2004; 44(3):654-60). Angiogenesis, arteriogenesis, and the number of cardiac cells within the infarct region were examined by immunohistochemical (IHC) staining with mouse monoclonal anti-CD31 (BD Biosciences Pharmingen, San Diego, Calif.) to visualize capillaries, mouse monoclonal anti-α-smooth muscle actin (Sigma, St. Louis, Mo.) to detect arterioles (Virag et al, Am J Pathol. 2003 Dec. 1, 2003; 163(6):2433-40; which is hereby incorporated by reference in its entirety), and mouse monoclonal anti-rat cardiac α-myosin heavy chain (Panorama Research Institute, Mountain View, Calif.) to detect the cardiac cells. The staining assay was performed using mouse-on-rat HRP-polymer (Biocare Medical, Concord, Calif.) on slides that were sequential to the slides stained with trichrome. Capillaries in the infarct region were identified as a single layer of CD31-positive cells with flattened morphology. Vessel density, cardiac cell density, and nuclei density was calculated on the basis of 5 high magnification fields per section that spanned the infarct and averaged among 5 sections for each sample. Arterioles within or bordering the infarct were identified as staining positive for α-smooth muscle actin and as having a visible lumen with a diameter between 10 and 100 μm (Yu et al, J Thorac Cardiovasc Surg. 2009 Jan. 1, 2009; 137(1):180-7; and Christman et a, J Am Coll Cardiol. 2004; 44(3):654-60). […]
Substance,Diastolic volume [1],MI wall thickness [1],Systolic volume [1],"Fractional area change (FAC), 5 weeks post-treatment [1] [%]","LV ejection fraction, 5 weeks post-treatment [1] [%]","Fractional area change (FAC), baseline [1] [%]","LV ejection fraction, baseline [1] [%]",Gelling temperature [2] [°C],Effect of peptide conjugation on viscoelastic properties of the polymer [2],Density of cardiomyocytes within the infarct region [3],Capillary density in the infarct region [3] [capillaries/mm^2],Infarct size [3],Arteriole density within the infarct region [3] [arterioles/mm^2]
"MC:CMC-HepIII: Methylcellulose blended 5:1 with carboxymethylcellulose conjugated to HepIII peptide GEFYFDLRLKGDKY (SEQ ID NO: 2) (also: conjugated to carboxymethylcellulose, blended with methylcellulose (attachment site not given here))",significantly decreased,increase,significantly decreased,45.6±9.63,43.0±6.25,36.9±2.60,36.9±2.18,26.85 ± 0.6256,decreased stiffness and viscosity,higher density,424±56,statistically significant reduction,28±10
"MC:CMC-RGD: Methylcellulose blended 5:1 with carboxymethylcellulose conjugated to RGD peptide GRGDSPASSPISC (SEQ ID NO: 1) (also: conjugated to carboxymethylcellulose, blended with methylcellulose (attachment site not given here))",significantly decreased,increase,significantly decreased,44.0±9.26,42.9±8.29,36.0±2.44,34.2±1.91,26.75 ± 0.4954,did not significantly alter,higher density,472±146,statistically significant reduction,32±12
